Measurements published in PubChem BioAssay AID2305 (GlaxoSmithKline (GSK), 2010).
Several values for one entry are separate records, joined by “and”; a condition that tells them apart may be missing. Equal values may be shown once.

System: P. falciparum 3D7 growth, pLDH absorbance
Assay: P. falciparum 3D7 growth inhibition, dose response, strain 3D7 (AID 2305)

First: CCCN(Cc1nnc(-c2cccs2)o1)C(=O)CSc1nnnn1-c1ccc(C)c(C)c1
Second: CCCn1c(Sc2ccc(C#N)c([N+](=O)[O-])c2)nnc1-c1ccc(N(C)C)cc1
The IC50 of the first is 4.5-fold higher: 0.58 µM for the first, 0.13 µM for the second.

`NC1=NC(c2ccccc2)(c2ccccc2)C(=O)N1CCCCc1ccccc1` and `c1ccc(CNCc2cccc(-c3ccc(-c4nc5ccccc5[nH]4)cc3)c2)cc1` are within 1.5-fold of each other in IC50: 0.76 µM for the first, 0.82 µM for the second.

`O=C(Nc1cccc(Cl)c1Cl)Nc1ccnc2ccccc12` and `Cc1cc(NC(=O)Nc2ccc(Cl)cc2F)c2ccccc2n1` are within 1.5-fold of each other in IC50: 0.75 µM for the first, 0.55 µM for the second.

`O=C(Nc1ccc(C(F)(F)F)cc1)c1cccc(S(=O)(=O)NC2CCN(CC3CCCCC3)C2)c1` (centres undefined) and `CCCc1ccc(S(=O)(=O)NC2CCN(C(=O)Nc3ccc(I)cc3)CC2)cc1` are within 1.5-fold of each other in IC50: 0.69 µM for the first, 0.87 µM for the second.

`CCN(CC)c1ccc(C=CC(=O)NCCN2CCC(N(C)C3CCCCC3C)CC2)cc1` (centres undefined) and `O=C(/C=C/c1ccc(Cl)c(Cl)c1)NCCCCCN1CCC(NC(=O)c2ccc(F)c(F)c2)CC1` are within 1.5-fold of each other in IC50: 0.96 µM for the first, 0.79 µM for the second.

Going from `c1ccc2[nH]c(-c3ccc(-c4ccc(CN5CCN(CCN6CCOCC6)CC5)cc4)cc3)nc2c1` to `O=C(Nc1ccc(-c2nc3ccccc3[nH]2)cc1)c1ccc(N2CCOCC2)c([N+](=O)[O-])c1`, the IC50 rises from 0.16 µM to 0.79 µM (4.9-fold). The first is the more potent here.

First: COc1ccc2c(c1)CCN(CCN1CCC(CNC(=O)c3ccc(-c4ccc(C#N)cc4)cc3)CC1)C2
Second: O=C(Nc1cccc(CN2CCCN(Cc3ccc(O)cc3)CC2)c1)c1ccc(-c2ccccc2)cc1
The IC50 of the first is 1.8-fold higher: 0.62 µM for the first, 0.34 µM for the second. The second is the more potent here.

Compared with `COc1ccc2nccc([C@@H](O)CN3CCC(NCc4cc5ccccc5[nH]4)CC3)c2c1`, `O=C(NC1CCN(Cc2ccccc2)CC1)c1ccc(-c2nc3cc(Cl)c(F)cc3[nH]2)cc1` is 4.4-fold lower in IC50: 1.1 µM for the first, 0.25 µM for the second. The second is the more potent here.

`OCc1ccc2nc3c(cc2c1)-c1cccc2cccc-3c12` and `Nc1cccc(CNCc2cccc(-c3ccc(-c4nc5ccccc5[nH]4)s3)c2)c1` are within 1.5-fold of each other in IC50: 0.66 µM for the first, 0.6 µM for the second.

`Cc1cc(=O)[nH]c(/N=C(/N)NOCCCc2ccccc2)n1` and `COc1ccccc1CCNc1nc(C)cc(N[C@@H](Cc2ccccc2)C(=O)NCc2cccc(F)c2)n1` are within 1.5-fold of each other in IC50: 0.76 µM for the first, 0.87 µM for the second.

`O=S(=O)(Nc1cccc(CCN2CCC(N3CCCCC3)CC2)c1)c1ccc(Cl)cc1` and `CC(C)CCN1CCCN(Cc2ccc(C(=O)Nc3ccc(Cl)cc3)cc2)CC1` are within 1.5-fold of each other in IC50: 0.92 µM for the first, 0.8 µM for the second.

Going from `CC[C@H]1CN2CC[C@H]1C[C@H]2[C@H](OC(=O)c1ccccc1)c1cc(C#N)nc2ccc(OC)cc12` to `CC(O)C1CCCCN1C(=O)c1cccc(-c2cccc(-c3nc4ccccc4[nH]3)c2)c1` (centres undefined), the IC50 falls from 0.91 µM to 0.53 µM (1.7-fold).

`O=C(NC1CCN(CC2(c3ccccc3F)CCCC2)CC1)c1ccn[nH]1` and `O=C(NC1CC1)c1cnc(N2CCC(Cc3ccccc3)CC2)c(Cl)c1` are within 1.5-fold of each other in IC50: 1 µM for the first, 0.67 µM for the second.

`CCCC(C)C(=O)N1CCOC(COCc2cccc(C(F)(F)F)c2)(c2ccc(Cl)cc2)C1` (centres undefined) and `COc1ccc(CCC(C)(C)NCC(O)c2cccc(C(F)(F)F)c2)cc1` (centres undefined) are within 1.5-fold of each other in IC50: 0.4 µM for the first, 0.48 µM for the second.

Going from `CCCC(C)Nc1nc(C)cc(N[C@@H](CC(C)C)C(=O)NC2CCCC2)n1` (some centres undefined) to `COc1cccc2cc(C(=O)N[C@@H](CC(C)C)C(=O)NC3CC[C@@H](C)N(C(=O)Nc4ccncc4)CC3=O)oc12` (some centres undefined), the IC50 falls from 1.08 µM to 0.29 µM (3.7-fold).

First: Cc1cc(NCCC(=O)NCc2cccc(F)c2)nc(NCCc2ccc(F)cc2)n1
Second: CC(C)(C)c1ccc2nc(-c3ccc(C(=O)NCc4cccc(C(F)(F)F)c4)cc3)[nH]c2c1
The IC50 of the first is 2.4-fold higher: 1.75 µM for the first, 0.73 µM for the second. The second is the more potent here.

`O=C(C=Cc1ccc(-c2nc3ccccc3[nH]2)cc1)NC1CCN(Cc2ccccc2)CC1` and `CN(c1cc(NC(=O)c2ccc(F)cc2)ccn1)C1CCN(Cc2cccc(O)c2)CC1` are within 1.5-fold of each other in IC50: 0.74 µM for the first, 0.92 µM for the second.

First: COCCn1ccc2c3c(N)nc(N)nc3ccc21
Second: COc1ccc(OCCn2cc(C(=O)c3ccco3)c3ccccc32)cc1
The IC50 of the first is 3.7-fold lower: 0.21 µM for the first, 0.77 µM for the second. The first is the more potent here.

`COc1cc(OCCCN(C)Cc2ccc(OC)c(OC)c2)ccc1NC(=O)c1cccc2c(=O)c3cccc(F)c3[nH]c12` and `COc1cc(C2Nc3ccc4ccccc4c3C3=C2C(=O)CC(C)(C)C3)ccc1Oc1ccc([N+](=O)[O-])cc1C#N` (centres undefined) are within 1.5-fold of each other in IC50: 0.89 µM for the first, 0.66 µM for the second.

Going from `O=C(CCN1CCCCC1)Nc1ccc(Nc2nccc(NCC(O)c3ccccc3)n2)cc1` (centres undefined) to `Oc1ccc(Nc2nc(N3CCCC3)c3ccccc3n2)cc1`, the IC50 falls from 0.72 µM to 0.27 µM (2.7-fold).

`CC(C)(C)c1ccc(NC(=O)c2cccc(CN3CCCN(Cc4ccc(F)cc4)CC3)c2)cc1` and `CC(C)(C)c1ccc(NC(=O)c2ccc(CN3CCCN(Cc4ccc(F)cc4)CC3)cc2)cc1` are within 1.5-fold of each other in IC50: 0.99 µM for the first, 1.11 µM for the second.

Going from `COc1ccccc1NC(=O)Nc1ccc(-c2ccc(-c3nc4c(C)cccc4[nH]3)s2)cc1` to `CN(C)CCc1coc2ccc(C(=O)Nc3ccc(-c4ccc(O)cc4)cc3)cc12`, the IC50 rises from 0.16 µM to 1.08 µM (6.8-fold). The first is the more potent here.

Compared with `CCOC(=O)c1ccc(NC(=O)N[C@@H](Cc2ccc(O)cc2)C(=O)NC2CCN(Cc3ccc4c(c3)OCO4)CC2)cc1`, `O=C(O)c1ccc(NC(=O)C2CC(=O)N(Cc3ccc(Cl)cc3)C(=Nc3ccc(Cl)cc3)S2)cc1` (centres undefined) is 2-fold lower in IC50: 1.06 µM for the first, 0.53 µM for the second.

`C[C@H]1CN(Cc2cccc(-c3cc(CNC(=O)c4cccc(CN5CCN(C/C=C/c6ccccc6)CC5)c4)ccc3F)c2)CCN1` and `COc1ccc(-c2ccc(NC(=O)c3cccc(Cl)c3)c(F)c2)cc1CN1CCCN(C)CC1` are within 1.5-fold of each other in IC50: 0.85 µM for the first, 0.68 µM for the second.

Compared with `CC(C)c1cn2c3c(cc(C(=O)N[C@@H](Cc4ccccc4)[C@H](O)CNC4CCOCC4)cc13)N(C)S(=O)(=O)CC2`, `COCCNC(=O)c1ccc(OC2CCN(CC(C)=Cc3ccccc3)CC2)c(Cl)c1` is 13-fold higher in IC50: 0.05 µM for the first, 0.65 µM for the second.

First: Cc1csc(-c2ccc3[nH]cc(C4=CCN(C)CC4)c3c2)n1
Second: Cc1cc(-c2cnc(N)c(-c3ccc(N4CCN(C)CC4)cc3)c2)cc(C)c1O
The IC50 of the first is 1.6-fold lower: 0.75 µM for the first, 1.17 µM for the second. The first is the more potent here.

Going from `Cc1ccc(Nc2nc3cc(N(C)c4ccnc(Nc5cccc(CCS(C)(=O)=O)c5)n4)ccc3n2C)cc1` to `CN(C)Cc1ccc(-c2ccc3c(Nc4ccc(Oc5ccccn5)cc4)ccnc3c2)o1`, the IC50 falls from 0.34 µM to 0.16 µM (2.1-fold).

Going from `OC(c1ccc(Cl)cc1)(c1ccc(Cl)cc1)C(c1ccc(Cl)cc1)n1ccnc1` (centres undefined) to `O=C(NC(c1ccc(Cl)cc1)c1ccc2cccnc2c1O)c1ccccc1` (centres undefined), the IC50 falls from 0.86 µM to 0.56 µM (1.5-fold).

`COc1ccc(-c2cccc(NC(=O)c3cccc(C#N)c3)c2)cc1CN1CCCC1` and `CN1CCN(c2ccc(-c3cccc(NC(=O)c4cccc(Cl)c4)c3)nn2)CC1` are within 1.5-fold of each other in IC50: 0.75 µM for the first, 0.58 µM for the second.

`CCCCNC(=O)c1[nH]c2c(NC(=O)COc3ccccc3)cccc2c1-c1cccc(NC(=O)C(N)CO)c1` (centres undefined) and `CC[C@H](C)CNC(=O)c1cncc(-c2ccc(CNCCOc3ccccc3)cc2)c1` are within 1.5-fold of each other in IC50: 0.85 µM for the first, 1.11 µM for the second.

First: CC(C)NCC(O)Cn1c2ccc(Br)cc2c2cc(Br)ccc21 (centres undefined)
Second: NC(N)=Nc1ccc(OCCCCCOc2ccc(N=C(N)N)cc2Br)c(Br)c1
The IC50 of the first is 1.7-fold higher: 0.45 µM for the first, 0.26 µM for the second.

`CN(C)CCCNCc1ccc(-c2ccc(C(F)(F)F)cc2)cc1` and `CCN(CC)CCN(Cc1ccc(-c2ccc(C(F)(F)F)cc2)cc1)C(=O)Cn1c(CCc2ccc(F)c(C#N)c2)nc(=O)c2ccccc21` are within 1.5-fold of each other in IC50: 0.87 µM for the first, 0.77 µM for the second.

Going from `Cc1ccc(-c2cc(C(=O)Nc3ccc(S(=O)(=O)N4CC(C)OC(C)C4)cc3)[nH]n2)c(O)c1` (centres undefined) to `O=C(N[C@@H](CC1CCCCC1)C(=O)NCCc1ccc(Cl)c(Cl)c1)c1ccc(O)c(-c2ccc(Cl)c(Cl)c2)c1`, the IC50 falls from 0.61 µM to 0.16 µM (3.8-fold). The second is the more potent here.

`CC(C)(C)c1cc(C(=O)N2CCN(c3ncnc4ccsc34)CC2)n(Cc2ccccc2)n1` and `O=C(NCCNc1ccnc2cc(Cl)ccc12)c1ccccc1F` are within 1.5-fold of each other in IC50: 0.91 µM for the first, 0.66 µM for the second.

For `C#CCOc1ccc(CC(C)NCC(O)c2cccc(C(F)(F)F)c2)cc1` (centres undefined), the IC50 was 1.19 µM and 1.03 µM.
